One data set concerns the target T1, human α2a receptor (Homo sapiens, UniProt P08913).
T1 construct: expressed in transfected cells
T1 sequence (P08913 1-465): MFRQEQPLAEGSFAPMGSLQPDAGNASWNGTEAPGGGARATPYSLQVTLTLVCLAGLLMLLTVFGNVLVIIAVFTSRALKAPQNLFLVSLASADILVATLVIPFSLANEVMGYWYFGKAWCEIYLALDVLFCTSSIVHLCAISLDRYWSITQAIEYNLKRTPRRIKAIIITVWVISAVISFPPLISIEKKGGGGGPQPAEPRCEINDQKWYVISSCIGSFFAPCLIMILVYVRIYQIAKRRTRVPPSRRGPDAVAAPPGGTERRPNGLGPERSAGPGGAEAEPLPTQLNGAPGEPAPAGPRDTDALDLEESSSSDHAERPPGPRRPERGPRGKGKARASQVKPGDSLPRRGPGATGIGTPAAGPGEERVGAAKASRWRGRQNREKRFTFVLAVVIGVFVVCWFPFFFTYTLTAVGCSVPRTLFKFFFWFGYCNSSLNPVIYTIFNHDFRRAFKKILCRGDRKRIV
The data set can be described thus: Competition binding ([3H]rauwolscine) at cloned human α2a receptor. Conditions: transfected LM(tk−) cells, [3H]rauwolscine 0.5 nM; read-out: Binding affinity hα2a. The source says: (§1) α2 Human Adrenergic Receptors
(§2) To determine the potency of α1 antagonists at the α2 receptors, LM(tk−) cell lines stably transfected with the genes encoding the α2a, α2b, and α2c receptors were used. The cell line expressing the α2a receptor is designated L-α2A, and was deposited on Nov. 6, 1992 under ATCC Accession No. CRL 11180. The cell line expressing the α2b receptor is designated L-NGC-α2B, and was deposited on Oct. 25, 1989 under ATCC Accession No. CRL10275. The cell line expressing the α2c receptor is designated L-α2C, and was deposited on Nov. 6, 1992 under ATCC Accession No. CRL-11181. All the cell lines were deposited with the American Type Culture Collection, 12301 Parklawn Drive, Rockville, Md. 20852, U.S.A. under the provisions of the Budapest Treaty for the International Recognition of the Deposit of Microorganisms for the Purposes of Patent Procedure. Cell lysates were prepared as described above (see Radioligand Binding Assays), and suspended in 25 mM glycylglycine buffer (pH 7.6 at room temperature). Equilibrium competition binding assay were performed using [3H]rauwolscine (0.5 nM), and nonspecific binding was determined by incubation with 10 μM phentolamine. The bound radioligand was separated by filtration through GF/B filters using a cell harvester.

The next data set has as its target T2, human α1b receptor (Homo sapiens, UniProt P35368).
T2 construct: The entire coding region of α1b (1563 bp); expressed in transfected cells
T2 sequence (P35368 1-520): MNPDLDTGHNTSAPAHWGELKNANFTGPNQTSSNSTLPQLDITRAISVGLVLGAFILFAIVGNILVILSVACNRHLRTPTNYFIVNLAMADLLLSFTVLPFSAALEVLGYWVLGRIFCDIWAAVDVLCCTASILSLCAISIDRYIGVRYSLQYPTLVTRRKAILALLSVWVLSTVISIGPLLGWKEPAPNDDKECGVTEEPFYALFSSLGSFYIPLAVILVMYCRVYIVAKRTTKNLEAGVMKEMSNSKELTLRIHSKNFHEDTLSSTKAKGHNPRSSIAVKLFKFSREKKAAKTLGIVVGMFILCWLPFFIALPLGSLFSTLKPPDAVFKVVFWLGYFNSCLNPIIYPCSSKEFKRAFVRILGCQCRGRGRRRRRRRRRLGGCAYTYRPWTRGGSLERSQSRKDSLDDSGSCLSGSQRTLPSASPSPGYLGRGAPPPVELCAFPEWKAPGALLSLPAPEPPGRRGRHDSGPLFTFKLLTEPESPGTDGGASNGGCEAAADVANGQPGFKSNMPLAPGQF
Briefly: Radioligand binding ([3H]prazosin) at cloned human α1b receptor. Conditions: membranes of transfected LM(tk−) cells, [3H]prazosin 0.5 nM; read-out: Binding affinity hα1b. As to the method: The activity of compounds at the different human receptors was determined in vitro using cultured cell lines that selectively express the receptor of interest. These cell lines were prepared by transfecting the cloned cDNA or cloned genomic DNA or constructs containing both genomic DNA and cDNA encoding the human α-adrenergic receptors as follows:
α1b Human Adrenergic Receptor
The entire coding region of α1b (1563 bp), including 200 base pairs and 5′ untranslated sequence (5′ UT) and 600 bp of 3′ untranslated sequence (3′ UT), was cloned into the EcoRI site of pCEXV-3 eukaryotic expression vector.
The construct involved ligating the full-length containing EcoRI brainstem cDNA fragment from λ ZapII into the expression vector. Stable cell lines were selected as described above. The cell line used herein was designated L-α1B and was deposited with the American Type Culture Collection, 12301 Parklawn Drive, Rockville, Md. 20852, U.S.A. under the provisions of the Budapest Treaty for the International Recognition of the Deposit of Microorganisms for the Purposes of Patent Procedure. The cell line L-α1B was accorded ATCC Accession No. CR 11139, on Sep. 29, 1992.
Radioligand Binding Assays for α1 Receptors
Transfected cells from culture flasks were scraped into 5 ml of 5 mM Tris-HCl, 5 mM EDTA, pH 7.5, and lysed by sonication. The cell lysates were centrifuged at 1000 rpm for 5 min at 4° C., and the supernatant was centrifuged at 30,000×g for 20 min at 4° C. The pellet was suspended in 50 mM Tris-HCl, 1 mM MgCl2, and 0.1% ascorbic acid at pH 7.5. Binding of the α1 antagonist [^3H]prazosin (0.5 nM, specific activity 76.2 Ci/mmol) to membrane preparations of LM(tk−) cells was done in a final volume of 0.25 ml and incubated at 37° C. for 20 min. Nonspecific binding was determined in the presence of 10 μM phentolamine. The reaction was stopped by filtration through GF/B filters using a cell harvester. Inhibition experiments, routinely consisting of 7 concentrations of the tested compounds, were analyzed using a non-linear regression curve-fitting computer program to obtain Ki values.

For another data set, the target named is T3, human α2b receptor (Homo sapiens, UniProt P18089).
T3 construct: expressed in transfected cells
T3 sequence (P18089 1-450): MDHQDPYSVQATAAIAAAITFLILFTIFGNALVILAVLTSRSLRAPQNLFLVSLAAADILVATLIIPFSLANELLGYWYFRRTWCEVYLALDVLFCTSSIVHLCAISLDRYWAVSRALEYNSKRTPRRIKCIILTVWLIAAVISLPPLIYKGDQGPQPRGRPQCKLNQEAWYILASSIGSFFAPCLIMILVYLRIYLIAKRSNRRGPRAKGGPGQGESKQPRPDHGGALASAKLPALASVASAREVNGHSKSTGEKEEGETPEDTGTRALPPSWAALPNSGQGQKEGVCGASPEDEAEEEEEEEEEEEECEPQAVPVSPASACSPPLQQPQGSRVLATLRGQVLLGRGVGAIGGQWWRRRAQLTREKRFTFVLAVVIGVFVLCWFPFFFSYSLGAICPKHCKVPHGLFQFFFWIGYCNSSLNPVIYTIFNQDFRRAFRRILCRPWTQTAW
Briefly: Competition binding ([3H]rauwolscine) at cloned human α2b receptor. As to conditions: transfected LM(tk−) cells, [3H]rauwolscine 0.5 nM; read-out: Binding affinity hα2b.
From the text: as §1, §2

For a further data set, the target named is T4, human α2c receptor (Homo sapiens, UniProt P18825).
T4 construct: expressed in transfected cells
T4 sequence (P18825 1-462): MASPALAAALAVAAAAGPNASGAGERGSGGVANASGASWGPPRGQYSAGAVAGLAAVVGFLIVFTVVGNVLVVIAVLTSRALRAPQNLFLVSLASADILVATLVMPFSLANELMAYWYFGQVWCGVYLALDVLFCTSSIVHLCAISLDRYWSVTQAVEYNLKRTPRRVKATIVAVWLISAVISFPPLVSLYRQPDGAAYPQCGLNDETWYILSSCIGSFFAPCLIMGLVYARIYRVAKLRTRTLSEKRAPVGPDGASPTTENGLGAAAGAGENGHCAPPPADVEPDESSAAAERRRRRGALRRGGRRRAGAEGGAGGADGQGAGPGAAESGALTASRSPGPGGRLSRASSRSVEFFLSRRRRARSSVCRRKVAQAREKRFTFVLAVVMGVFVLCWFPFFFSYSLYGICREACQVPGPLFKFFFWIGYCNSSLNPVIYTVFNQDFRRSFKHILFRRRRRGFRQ
Briefly: Competition binding ([3H]rauwolscine) at cloned human α2c receptor. As to conditions: transfected LM(tk−) cells, [3H]rauwolscine 0.5 nM; read-out: Binding affinity hα2c.
From the text: as §1, §2

The structures appear in SMILES notation. Counter-ions that a name gives are not always drawn.

In the case of `COCC1=C(CC(=O)O)C(c2ccc(F)c(F)c2)N(C(=O)NCCC[N+]2([O-])CCC(c3ccccn3)CC2)C(=O)N1` (single isomer, unassigned; (+)) [Compound 4, (+)-4-(2-Pyridyl)-1-{3-[5-carboxymethyl-4-methoxymethyl-2-oxo-6-(3,4-difluorphenyl)-1,2,3,6-tetrahydropyrimidin-1-ylcarbonylamino]propyl}piperidine-1-oxide], the Ki on human α2a receptor stood at 22 µM; on human α1b receptor it was 1.35 µM; at human α2b receptor, 17 µM; on human α2c receptor it was 8 µM.
With `O=C1OCC2=C1C(c1ccc(F)c(F)c1)N(C(=O)NCCCN1CCC(c3ccccn3)CC1)C(=O)N2` (single isomer, unassigned; (+)) (as salt: hydrochloride) [Compound 8, (+)-1-3-{[4-(3,4-Difluorophenyl)-2,5-dioxo-1,2,5,7-tetrahydro-4H-furo[3,4-d]-pyrimidine-3-carbonyl]amino}-propyl-4-(2-pyridyl)-piperidine], the melting point is 90 to 95 °C.
As for `COC(=O)C1=C(c2ccc(F)c(F)c2)N(C(=O)NCCCN2CCC(c3ccccn3)CC2)C(=O)NC1C(=O)O` (single isomer, unassigned; (+)) [Compound 6, (+)-2-Oxo-3-{N-[4-(2-pyridyl)piperidin-1-yl]propyl}carboxamido-4-(3,4-difluorophenyl)-5-methoxycarbonyl-6-carboxy-1,2,3,6-tetrahydropyrimidine], the Ki at human α2a receptor is over 50 µM; at human α1b receptor it was over 2 µM; at human α2b receptor, 37.6 µM; at human α2c receptor it was over 50 µM.
`COCC1=C(C(=O)OC)[C@H](c2ccc(F)c(F)c2)N(C(=O)NCCC[n+]2ccc(-c3ccccn3)cc2)C(=O)N1` (as salt: chloride) [Compound 3, 4-(2-Pyridyl)-1-{3-[5-carboxymethyl-4-methoxymethyl-2-oxo-6(S)-(3,4-difluorphenyl)-1,2,3,6-tetrahydropyrimidin-1-yl]carboxyaminopropyl}pyridinium chloride] came in with a melting point of 60 to 85 °C.

(Values after patent US6680323B2, “Dihydropyrimidines and uses thereof” (Synaptic Pharmaceutical Corporation, priority 1998, dated 2004).)
